Measured values published in patent publication US11819540B2, “Methods for treating and preventing neutrophil-derived net toxicity and thrombosis” (CHILDREN'S MEDICAL CENTER CORPORATION, priority 2011, dated 2023).

Experiments:
platelets = assay: Platelet aggregation (light transmission) with histones; format: cell-based, human; details: EDTA 5 mM; heparin
Excerpt: (§1) For FIGS. 2A and 2B data are presented as mean±SEM, n=3; (Student's t test; *P<0.05; **P<0.01). […] A second band (arrowhead) may represent cross reactivity of the antibody or a proteolytic product. Data presented are representative of three independent experiments. FIG. 2D is a graph of the degree of aggregation of platelets treated with thrombin (open circles), human recombinant histone H3 (solid circles), EDTA (solid squares), and heparin (solid triangles). […] FIG. 2E is a graph of the degree of aggregation of platelets 3 minutes after addition of various histones or throbmin (Thr). […] (ANOVA; ***P<0.001 compared with histone H1).
The possibility of a direct interaction between platelets and histones was examined. […] Thrombin (0.5 U/mL; open circles in FIG. 2D) and […] served as a positive control in these experiments. Aggregation in response to histone H3 (FIG. 2D) and H4 (data not shown) was inhibited by EDTA (5 mM; solid squares in FIG. 2D) which excluded platelet agglutination caused by the positive charge of histones. […] Dissociating NETs and inhibiting histones could add to the antithrombotic effects of heparin.

[1] = tested on: blood clots (fibrin and NET scaffold); assay: Clot formation in recalcified blood with or without PAF-activated neutrophils (thrombolysis); format: cell-based, human; details: tPA 25 μg/mL, DNase 100 U/mL
Procedure: Fibrin polymerization was induced in blood by recalcification and incubated either in the absence (medium) or presence of neutrophils preactivated by PAF to induce NET formation (neutrophils+PAF). Samples were treated with DNase to digest extracellular traps or tPA for fibrin digestion. […] (Scale bar, 1 cm.) The graph presents quantification of the clots by weighing. […] Data are presented as mean±SEM, n=4; (ANOVA; ***P<0.001). The first bar in each x-axis category represents the untreated samples, the second bar represents the samples treated with DNase, the third bar represents the samples treated with tPA, and the fourth bar represents the samples treated with tPA and DNase.
The relative susceptibility of NETs and fibrin to serve as scaffolds for blood clots to thrombolysis was examined (FIG. 20). Neutrophils were prestimulated with platelet-activating factor to release NETs with recalcified blood under stirring conditions. Two-hundred-fifty microliters of 5×10^6 neutrophils per milliliter in RPMI medium were activated by platelet activating factor (50 μM Calbiochem) at 37° C. under static conditions to induce NET formation. Control samples were 250 μL medium alone, 250 μL of unstimulated neutrophils, or 250 μL of 50 μM PAF in medium. After 10 min, 250 μL of recalcified (40 mM CaCl2) ACD anticoagulated blood was added. […] Images were acquired and the clot was determined. […]

NETs [2] = assay: Perfusion of blood over NETs in a flow chamber; format: cell-based, human
Procedure: The interaction between NETs and blood was studied using NETs isolated from human neutrophils. Blood samples were obtained from healthy donors who had not taken any medication for at least 10 day. Platelets and neutrophils were prepared from ACD-blood (Brill A, et al. Cardiovasc Res 2009 84(1):137-144) or EDTA-blood (Fuchs et al., J Cell Biol 2007 176:231-241), respectively. Neutrophils were seeded into flow chambers (μ-Slide IV, IBIDI) at 0.5 to 1×10^7 cells/mL. NET formation by the majority of cells was induced by phorbol 12-myristate 13-acetate (PMA, 50 nM, 4 h; Sigma Aldrich) or glucose oxidase (GO, 1 U/mL, 4 h; Worthington Biochem), as previously described (Brill A, et al. Cardiovasc Res 2009 84(1):137-144). PMA-induced NETs were used for initial observations. Other experiments were done with GO-induced NETs. NETs were washed and blocked with 1% BSA (Calbiochem). NET-DNA was stained with 1 μg/mL Hoechst 33258 (Invitrogen) for 15 min at 37° C. or SytoxGreen (1 μM, Invitrogen). Washed platelets were loaded with fluorescent Calcein-AM (2.5 μg/mL, 10 min, 37° C.; Invitrogen) or platelets in whole blood were labeled with Rhodamine 6G (5 μg/mL, 10 min, 37° C.; Sigma). Fluorescent images were acquired by a Zeiss Axiovert 200 inverted fluorescence microscope in conjunction with a monochrome camera (AxioCam MRm). Colors for fluorescence channels were assigned using Axiovision software. Fluorescent areas in images were quantified using ImageJ software.
(§2) NETs were induced on glass coverslips and perfusion was performed using a parallel-plate flow chamber system (Glycotech). NETs were perfused with platelets suspended in plasma at a shear rate of 200/s or 900/s and 37° C. using a peristaltic pump and observed to be avidly adhering platelets. NETs were washed and fixed with 2.5% glutaraldehyde and electron microscopy was performed. […] NETs were also perfused with ACD-anticoagulated blood supplemented with the irreversible thrombin inhibitor PPACK-Dihydrochloride (100 μM; Calbiochem) and recalcified by addition of 2 mM CaCl2. […] Cells firmly attached to collagen or NETs were lysed with 100 μL of 0.5% Triton×100 in water. Hemoglobin content was measured using the method of Drabkin (Drabkin PNAS 1971 68:609-13). To quantify platelets, Rhodamine-6G fluorescence of the sample was analyzed using a fluorometer.
Strings of NETs aligned in the direction of flow and, importantly, NETs were not a static surface but moved in three dimensions. Within 1 min from onset of perfusion, small platelet aggregates appeared on NETs. Platelet adhesion and aggregation on NETs increased over the next 9 min. […] Both platelet aggregates and NETs were removed by DNase and 10 minutes after the beginning of perfusion (FIGS. 1C and 1D). […] Thus, NETs were the only prothrombotic substrate in these experiments. FIGS. 1C and 1D show data that are representative of at least three independent experiments and are shown as mean±SEM, n=3. AU means arbitrary units.

NETs [3] = assay: Binding of plasma VWF, fibronectin and fibrinogen to NETs; format: cell-based, human; details: DNaseI 100 U/mL, 10 min after plasma incubation
Procedure: FIGS. 19A-19C depict graphs of the binding of von Willebrand factor (VWF), fibronectin, and fibrinogen to neutrophil extracellular traps (NETs). Human NETs were incubated with human plasma for 30 min, washed, and stained for VWF (19A), fibronectin (19B), or fibrinogen (19C). […] Data are presented as mean±SEM, n=3; (Student's t test); **P<0.01; ***P<0.001.
Whether NETs can concentrate plasma proteins that promote and stabilize thrombi (Frenette and Wagener NEJM 1996 335:43-5) was determined. […] After the activation, NETs were incubated with 1% BSA for 1 h at 37° C. NETs were washed and incubated with 50% plasma in PBS for 30 min at 37° C. Next, NETs were washed and treated with DNaseI (100 U/mL, 10 min). After another wash, cells were fixed with paraformaldehyde (2%, 1 h at 37° C.) and unspecific binding sites were blocked with BSA (3%, 1 h at 37° C.). Primary antibodies were used at 1 μg/mL in PBS supplemented with 1% BSA and 0.1% Triton×100 [mouse-antifibrinogen, rabbit-antifibronectin (both Sigma); rabbit-anti-VWF, (Chemicon)]. After incubation at 37° C. for 1 h, samples were washed with PBS and fluorescently conjugated secondary antibodies (Invitrogen) were applied at 10 μg/mL for 30 min at 37° C. […] The interaction of fibrinogen with NETs and its ability to promote fibrin deposition was determined. […]

collagen = assay: Perfusion of blood over collagen-coated flow chamber; format: cell-based; details: blood supplemented with DNase
Procedure: as §2
When NETs were washed after perfusion with blood and observed macroscopically a red thrombus was detectable (FIG. 3A). Shown in FIG. 3A is a flow chamber coated with NETs after perfusion with blood. Light microscopy of a red thrombus (arrow) anchored on two strings (arrowheads). FIG. 3A is a composite of multiple photographs of the flow chamber. (Scale bar, 500 μm). […] RBC adhesion to NETs was prevented when blood was supplemented with DNase, confirming that RBCs were attached to NETs. […]

NETs [4] = assay: Incubation of NETs under static conditions, immunodetection of released histone H2B; format: cell-based, human
Excerpt: as §1
The effect of heparin was also observed in medium, indicating a direct interaction of heparin with the NETs. Heparin has high affinity for histones (Pal et al., Thromb Res 1983 31:69-79) and releases histones from chromatin (Napirei et al. FEBS J 2009 276:1059-1073).

[5] = blood supplemented with DNase at the beginning of the perfusion

Molecule	platelet aggregation in response to histone H3 and H4 in presence of inhibitor (platelets)	clot formation ([1]; absence of activated neutrophils (medium))	clot formation / clot size ([1]; presence of PAF-activated neutrophils)	NETs and adherent platelets after DNase addition (NETs [2]; DNase 100 U/mL added 10 min after beginning of perfusion)	RBC adhesion to NETs (NETs [2]; blood supplemented with DNase)	platelet adhesion to NETs (NETs [2]; blood supplemented with DNase)	NETs (NET-DNA area) (NETs [2]; [5])	platelet aggregates on NETs (NETs [2]; [5])	binding of VWF, fibronectin and fibrinogen to NETs (NETs [3])	platelet adhesion to collagen-coated chambers (collagen)	release of histones (H2B) from NETs (NETs [4])	platelet aggregates on NETs (NETs [2]; heparin 10 μg/mL)	NETs (NET-DNA) (NETs [2]; heparin 100 μg/mL, perfusion with heparinized blood, 10 min)
O=C(O)CN(CCN(CC(=O)O)CC(=O)O)CC(=O)O [EDTA, ethylenediaminetetraacetic acid]	inhibited												
DNase		had no effect	did not change	simultaneously removed NETs and platelets	prevented	prevented platelet adhesion to NETs	NETs were degraded rapidly	platelet aggregates did not form	binding to NETs in a DNase-sensitive manner	had no effect	released histones to the culture supernatant		
Heparin [reference compound]	completely abolished platelet response to these histones										released histones to the culture supernatant	removed platelet aggregates from NETs	almost completely dismantled NETs
